Read-outs that look alike come from different tables or passages of the source.
Columns and labels:
[1] = log D7.4 determination, shake-flask n-octanol/PBS; format: physicochemical; conditions: ^64Cu-labeled, n-octanol/PBS pH 7.4, mean ± SD, n=3
Method: n-Octanol/water distribution coefficients (log D7.4) were determined using the shake-flask method and performed in triplicate. Twenty µL of the reaction mixture was added to a 1.5 mL Eppendorf Tube containing 580 µL of 1× PBS (pH 7.4) and 600 µL n-octanol. The two-phase system was shaken at room temperature with 1500 rpm for 5 min. After centrifugation, an aliquot of each phase was withdrawn, and the count rates were measured in a γ-counter (ISOMED2160 sodium iodide crystal detector). The average was calculated, corrected for background activity, and the log D7.4 value was calculated according to the formula: logD7.4=logAn−octanol/APBS .

[2] = Proteolytic stability in human serum, radio-HPLC; format: in vitro ADME; conditions: ^177Lu-labeled, throughout the study (up to seven days)
Method: The corresponding radiotracer was labeled with approx. 50 MBq of ^177Lu in 200 µL HEPES solution (pH 4) as described above. After successful labeling, the reaction mixture was diluted 1:10 with human serum. The solution was incubated at 37 °C with shaking at 500 rpm. After 1 h, 24 h, 48 h, 72 h, and 7 d, a 1 µL aliquot was analyzed by radio-TLC as described above. Evaluation and graphical plotting were performed with OriginPro® 9.0.
For investigation by radio-HPLC, a chloroform–methanol precipitation was carried out at each time point. An aliquot (100 µL) of the serum-containing incubation reaction was mixed with 400 µL of MeOH. Then, 100 µL of chloroform were added and the sample was vortexed well. For phase separation, 300 µL of ultrapure water were added, and the sample was vortexed vigorously and centrifuged for 2 min at 14,000× g. The upper, aqueous layer was carefully removed and collected. To the lower chloroform phase and the interphase containing the precipitated proteins, 400 µL of MeOH was added. The sample was mixed and centrifuged again for 3 min at 14,000× g to pellet the proteins. […] Afterward, the clear supernatant was analyzed by radio-HPLC (system E). The peak areas were normalized by measuring the activity with the gamma counter (HIDEX Deutschland Vertrieb GmbH, Mainz, Germany) at the corresponding time point. Evaluation and graphical plotting were performed with OriginPro® 9.0.

[3] = test system: PC3 PD-L1 and PC3 mock tumors; assay: Small animal PET/CT in tumor-bearing mice; format: in vivo, NMRI-nude mice; conditions: blocking with 100 nmol of the respective unlabeled compound; PET
Method: Male athymic NMRI-nude mice (Rj:NMRI-Foxn1nu, Janvier Labs, Le Genest-Saint-Isle, France) between 8 and 22 weeks of age were used. Under general anesthesia, [~10% desflurane (Baxter, Deerfield, IL, USA) in 30 vol% oxygen + air] and warming, animals were subcutaneously injected with 3–5 × 10^6 PC3 PD-L1 and PC3 mock cells [in 50 µL PBS + 50 µL Matrigel (Corning, Glendale, CA, USA)] into the right and left thigh, respectively. Tumor growth was monitored three times a week by caliper measurements and mice with tumor sizes above 7 mm were included in the experiments.
For PET studies, general anesthesia was induced as described above. PET and X-ray computed tomography (CT) were performed in a dedicated small animal nanoScan PET/CT scanner, with 4 animals imaged simultaneously (Mediso, Budapest, Hungary). CT images were employed for attenuation correction and anatomical referencing. Animals received three individual scans corresponding to 0–2 h (dynamic), 4.5 h, and 24 h (static) post injection. […]
Three-dimensional volumes of interest were delineated applying fixed thresholding at 35% of the measured maximum intensity. Standardized uptake values (SUV = [MBq detected activity/mL tissue]/[MBq injected activity/g body weight], […]) were determined in selected volumes of interest, among these PD-L1 and mock tumors and metabolizing organs.

[4] = test system: human serum proteins; assay: Serum protein binding, size-exclusion chromatography; format: in vitro ADME; conditions: ^177Lu-labeled; human serum 37 °C; 1 h
Method: The corresponding ligand was labeled with approx. 50 MBq of ^177Lu in 200 µL HEPES solution (pH 4) as described above. After successful labeling, 40 µL were mixed with 500 µL of human serum or 500 µL of 1 M HEPES solution (control), respectively. The samples were incubated at 37 °C with 500 rpm and were analyzed by size-exclusion chromatography (Jasco Germany GmbH, Pfungstadt, System F) and native discontinuous polyacrylamide gel electrophoresis (PAGE).
For size-exclusion chromatography, 20 µL aliquots were injected into system F and the obtained peak areas of serum-bound ligands and unbound ligands were used to calculate the percentage of radioligand bound to serum proteins. Evaluation and graphical plotting were performed with OriginPro® 9.0.

[5] = target: T1, PD-L1 (Homo sapiens, UniProt Q9NZQ7); assay: Saturation binding assay (endpoint, with 2.5% BSA) on PD-L1-positive PC3 cells
T1 construct: expressed in transfected cells; host or cells: PC3 cells, lentiviral transduction (PC3-PD-L1)
Method: To determine the dissociation constant (KD) and number of binding sites (Bmax) of new PD-L1 small-molecule ligands, saturation binding was performed in at least 3 independent experiments. PC3 cells stably transduced with human PD-L1, cultured under conditions described above, were brought to room temperature followed by cooling on ice (each 15 min). The medium was removed and replaced with 200 µL assay buffer [PBS + 2.5% (w/v) bovine serum albumin (BSA; #1ETA, Carl Roth, Karlsruhe, Germany)] for total binding (TB) conditions or assay buffer containing 300 µM of 1 (in DMSO, resulting in 0.03% v/v, synthesized according to Supplementary Scheme S1) for assessment of nonspecific binding (NSB).
After 15 min preincubation for TB/NSB, 200 µL of each eight serial 1:1 dilutions (500 to 3.91 nM) of the respective radioligand were added (in triplicate). […] Radioactivity (counts per minute, CPM) of 400 µL of the lysate was measured in a gamma counter (Perkin Elmer Wizard 1480) using the nuclide-specific energy window. Additionally, we determined the binding to polystyrene in 400 µL of lysate and activity of stock solutions (50 µL). […] Protein content of the lysates (24 or 48 wells) was determined by BCA assay and a mean value (µg/mL) used for this particular dataset (plate). From CPM measurements, final values (pmol/mg protein) were calculated using mean protein content and molar activity. […]

[6] = target: T1, PD-L1; assay: Real-time radioligand binding (LigandTracer) on PC3 PD-L1 overexpressing cells; conditions: for kon: read-out: ka (association rate constant); for koff: read-out: kd (dissociation rate constant)
Method: For binding kinetics (association rate constant ka and dissociation rate constant kd) and dissociation constant (KD), a real-time assay system (LigandTracer Yellow, Ridgeview Instruments AB, Uppsala, Sweden) was employed. In this system, the petri dish containing the cells in medium (3 mL) was located on one side, while radioactivity was detected on the opposite side. The dish rotated on an inclined base, which allowed continuously measuring two or more alternating parts of the dish for bound radioligand (cells) against background (no cells). Binding was performed at room temperature (using CO2-independent medium, Gibco #18045088, ThermoFisher Germany) with or without BSA (2.5%). Association was determined through incubation with two concentrations (10 and 40 nM, 90 min each) of our ^64Cu-labeled PD-L1 small molecules, binding to PC3 PD-L1 overexpressing cells. This was followed by replacement with fresh medium and measurement of dissociation for at least 2 h. This approach provided reliable kinetic measurements as previously shown. Data were acquired in decay-corrected counts per second (CPS). Binding data were then evaluated using TraceDrawer (1.9.2, Ridgeview Instruments AB, Uppsala, Sweden). Traces were imported, potential spikes (>100% sudden increases in CPS over previous datapoint) removed, and each trace was normalized to its own baseline (=0%) and highest value (=100%). The single experiment in the presence of 2.5% BSA was processed in the same way and analyzed for the same parameters, however without replicates.

[7] = test system: PD-L1; set-up: method as in earlier work; conditions: reported values; cited from earlier work
[8] = medium only (no BSA), n = 2, mean ± S.D.

T1 sequence (Q9NZQ7 19-290): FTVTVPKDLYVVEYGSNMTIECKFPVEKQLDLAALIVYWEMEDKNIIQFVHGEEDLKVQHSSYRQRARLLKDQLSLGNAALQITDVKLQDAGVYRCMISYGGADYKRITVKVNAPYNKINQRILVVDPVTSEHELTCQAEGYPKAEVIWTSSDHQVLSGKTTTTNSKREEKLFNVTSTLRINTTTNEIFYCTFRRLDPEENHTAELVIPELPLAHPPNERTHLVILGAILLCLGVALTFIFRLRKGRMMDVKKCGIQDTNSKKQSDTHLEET

| Structure (SMILES) | logD [1] | intact radiotracer [2] | bound to human serum proteins (mean ± SD) [4] | further results |
| --- | --- | --- | --- | --- |
| CN(CC(=O)NCC(S(=O)(=O)O)S(=O)(=O)O)Cc1cc(Cl)c(OCc2cccc(-c3cccc(OCc4cn(CCCC5CCN(C(=O)CN6CCN(CC(=O)O)CCN(CC(=O)O)CCN(CC(=O)O)CC6)CC5)nn4)c3)c2Br)cc1OCc1cncc(S(C)(=O)=O)c1 [42a] | -2.73 | – | – | – |
| CN(CC(=O)NCC(S(=O)(=O)O)S(=O)(=O)O)Cc1cc(Cl)c(OCc2cccc(-c3cccc(OCc4cn(CCOCCOCCN5CCN(C(=O)CN6CCN(CC(=O)O)CCN(CC(=O)O)CCN(CC(=O)O)CC6)CC5)nn4)c3)c2Br)cc1OCc1cncc(S(C)(=O)=O)c1 [42c] | – | > 90% | – | – |
| Cc1c(COc2cc(OCc3cncc(S(C)(=O)=O)c3)c(CN(C)CC(=O)NCC(S(=O)(=O)O)S(=O)(=O)O)cc2Cl)cccc1-c1cccc(OCc2cn(CCCN3CCN(C(=O)CN4CCN(CC(=O)O)CCN(CC(=O)O)CCN(CC(=O)O)CC4)CC3)nn2)c1C [43b] | – | – | – | blocking effect [3]: moderate blocking effect |
| Cc1c(COc2cc(OCc3cncc(S(C)(=O)=O)c3)c(CN(C)CC(=O)NCC(S(=O)(=O)O)S(=O)(=O)O)cc2Cl)cccc1-c1cccc(OCc2cn(CCOCCOCCN3CCN(C(=O)CN4CCN(CC(=O)O)CCN(CC(=O)O)CCN(CC(=O)O)CC4)CC3)nn2)c1C [43c] | -3.5 | > 90% | – | – |
| Cc1c(COc2cc(OCc3cncc(C#N)c3)c(CN(C)CC(=O)NCC(S(=O)(=O)O)S(=O)(=O)O)cc2Cl)cccc1-c1cccc(OCc2cn(CCCN3CCN(C(=O)CN4CCN(CC(=O)O)CCN(CC(=O)O)CCN(CC(=O)O)CC4)CC3)nn2)c1C [56a] | – | > 90% | 95.7% | – |
| Cc1c(COc2cc(OCc3cncc(C#N)c3)c(CN(C)CC(=O)NCC(S(=O)(=O)O)S(=O)(=O)O)cc2Br)cccc1-c1cccc(OCc2cn(CCCN3CCN(C(=O)CN4CCN(CC(=O)O)CCN(CC(=O)O)CCN(CC(=O)O)CC4)CC3)nn2)c1C [56b] | – | > 90% | 94.6% | – |
| Cc1c(COc2cc(OCc3cncc(C#N)c3)c(CN(C)CC(=O)NCC(S(=O)(=O)O)S(=O)(=O)O)cc2I)cccc1-c1cccc(OCc2cn(CCCN3CCN(C(=O)CN4CCN(CC(=O)O)CCN(CC(=O)O)CCN(CC(=O)O)CC4)CC3)nn2)c1C [56c] | – | – | 97.6% | – |
| CCCC[C@H]1C(=O)N(C)[C@@H](CCCC)C(=O)N[C@@H](CCCNC(=O)CCC(C(=O)O)N2CCN(CC(=O)O)CCN(CC(=O)O)CCN(CC(=O)O)CC2)C(=O)N[C@H](C(=O)NCC(N)=O)CSCC(=O)N[C@@H](Cc2ccc(O)cc2)C(=O)N(C)[C@@H](C)C(=O)N[C@@H](CC(N)=O)C(=O)N2CCC[C@H]2C(=O)N[C@@H](Cc2c[nH]cn2)C(=O)N[C@@H](CC(C)C)C(=O)N2C[C@H](O)C[C@H]2C(=O)N[C@@H](Cc2c[nH]c3ccccc23)C(=O)N[C@@H](CO)C(=O)N[C@@H](Cc2cn(C)c3ccccc23)C(=O)N1C (stereo partly drawn) [[^64Cu]Cu-DOTAGA-WL12, metal not drawn] | -2.57 ± 0.02 | – | – | Bmax (maximum number of binding sites) ([5]; ^64Cu complexes, saturation binding with 2.5% BSA, PD-L1-positive PC3 cells): 56.7 ± 3.87 pmol/mg; affinity, times worse than previously reported using SPR ([5]; saturation KD versus SPR value of ref 68): approximately 15 times; kon ([6]; medium + 2.5% BSA, n = 1): 7460 M⁻¹ s⁻¹; koff ([6]; medium + 2.5% BSA, n = 1): 6.74e-06 s⁻¹; kon [6, 8]: 12200 M⁻¹ s⁻¹; koff [6, 8]: 9.77e-06 s⁻¹ |
| Cc1c(COc2cc(OCc3cncc(C#N)c3)c(CN(C)C(CO)(CO)CO)cc2Cl)cccc1-c1cccc(OCCCN2CCC(F)(F)C2)c1C [compound 3] | – | – | – | IC50 [7]: 0.5 nM |
